What was measured:
[1] = system: Mouse model of neurotrophic keratitis; assay: Confocal laser microscope imaging of corneal nerves (β-tubulin III staining) in mouse model of neurotrophic keratitis; type: in vivo, C57BL/6 mice; conditions: 14 d after the operation
Procedure: (§1) (1) C57BL/6 mice, 6 to 8 weeks old, male, weighing 20 g to 25 g, were purchased from Beijing Vital River Laboratory Animal Technology Co., Ltd. Animal breeding was conducted in the Animal Laboratory of the Eye Institute of Shandong First Medical University. The temperature was controlled at 22±2° C., the humidity was controlled at 60±10%, a light and dark cycle was 12 h, and food and drink were given ad libitum.
(2) Experimental grouping: 30 of 6- to 8-week-old C57BL/6 male mice (body weight 20 g to 25 g) were randomly divided into 5 groups, 6 in each group, respectively: • 1. A control group • 2. An eye drop group with the control methylcobalamin ophthalmic drop Comparative Example 1 • 3. An eye drop group with a recombinant human nerve growth factor • 4. An eye drop group with methylcobalamin+proanthocyanidin (Example 1) • 5. A subconjunctival implantation group with a methylcobalamin hydrogel (Example 2) […]
Samples were taken 14 d after the operation. […] The cornea was washed 6 times with PBS, 10 min each time, the corneal epithelium was spread upward, and sealed with DAPI-containing anti-fluorescence quenching buffered glycerin, stored in the dark, and then imaged with a confocal laser microscope.

[2] = system: Mouse model of neurotrophic keratitis; assay: Slit lamp photography of the eye in mouse model of neurotrophic keratitis; type: in vivo, C57BL/6 mice; conditions: day 7, slit lamp; eye drops 4 times a day or subconjunctival hydrogel implant (about 0.02 mg)
Procedure: as §1
(2) Experimental grouping: 30 of 6- to 8-week-old C57BL/6 male mice (body weight 20 g to 25 g) were randomly divided into 5 groups, 6 in each group, respectively: • 1. A control group • 2. An eye drop group with the control methylcobalamin ophthalmic drop Comparative Example 1 • 3. An eye drop group with a recombinant human nerve growth factor • 4. An eye drop group with methylcobalamin+proanthocyanidin (Example 1) • 5. A subconjunctival implantation group with a methylcobalamin hydrogel (Example 2)
The mice were intraperitoneally anesthetized with a 0.6% pentobarbital sodium solution (1 ml/100 g), fixed on an operating table in a lateral position, and the bulbar conjunctiva was incised 90 degrees along the temporal corneoscleral limbus with Vannas scissors. The retroorbital venous plexus should not be damaged. […]

## recombinant human nerve growth factor: recombinant human nerve growth factor eye drops, comparator group
[1]
  regeneration of corneal nerve endings: regenerated
[2]
  corneal neovascularization: not obvious

— patent publication US20240156854A1, “METHYLCOBALAMIN OPHTHALMIC PREPARATION AND USE THEREOF” (EYE INSTITUTE OF SHANDONG FIRST MEDICAL UNIVERSITY, priority 2022, published 2024)
